Converted amounts (≈) assume the structure as drawn. Where two headings read alike, the source gives them in different places. Peptide text beside a SMILES is read from it.

In data set [1] the test system is V. vulnificus. Briefly: MIC, broth microdilution (NCCLS). Format: cell-based, Vibrio vulnificus. To be noted: 28°C. The protocol: (§1) We determined the MICs of TP3, TP4, kanamycin, and ampicillin against V. vulnificus using a broth microdilution method in accordance with NCCLS guidelines. To measure the killing efficiencies of TP3 and TP4 against V. vulnificus, we prepared TP3 or TP4 solutions at MIC concentrations of 0.5×, 1×, and 2× and these solutions with equal volumes of V. vulnificus (1×10^6 CFU/ml) to each well of a 96-well plate. The plates were incubated at 28°C for 0, 60, 120, 180, 360, 540, 720, or 1440 minutes, and after the incubation period, 50 μL of each bacterial solution were plated on a TCBS plate to obtain viable cell counts. Broth grown in the absence of peptides was used as a negative control. The results were determined using triplicate independent experiments.
In general terms: Broth dilution looks for growth in wells or tubes with falling amounts of substance.

The test system of data set [2] is V. vulnificus. Briefly: microbe, parasite or virus in culture. It is filed as cell-based, Vibrio vulnificus. To be noted: V. vulnificus. As to the method:
as §1
First, we determined the minimum MICs and minimum bactericidal concentrations (MBCs) of TP3 or TP4 against V. vulnificus.

The subject of data set [3] is V. vulnificus. Description: microbe, parasite or virus in culture. It is filed as cell-based, Vibrio vulnificus. As to the method:
(§2) To understand the effects of pH on TP3 or TP4, the reagents were dissolved in ddH2O, 1 M HCl or 1 M NaOH to obtain solutions with different pH values. For the temperature-dependent functional study, the TP3 or TP4 was added to a solution in a water bath (Basic life, model BL3002, Taiwan) and incubated for 60 minutes at different temperatures (40, 60, 80, or 100°C). To evaluate the effects of TP3 and TP4 on pepsin and trypsin function, each peptide was incubated for 10 or 30 minutes with different concentrations of pepsin or trypsin (0.1, 1, or 10 μg/ml), and we determined the MIC values after incubating these solutions with cells at 28°C for 720 minutes, according to a previously described MIC experimental protocol.

Data set [4] deals with V. vulnificus. Description: microbe, parasite or virus in culture. It is filed as cell-based, Vibrio vulnificus. The protocol: as §2, with “[…],” for “and we determined the MIC values after incubating these solutions with cells at 28°C for 720 minutes,”
The source holds these as a separate data set.

Data set [5] has as its system V. vulnificus. Briefly: Membrane perturbation, NPN uptake. It is filed as cell-based, Vibrio vulnificus. As to conditions: 1×10^6 CFU/ml, 30 minutes, 40 μmol/L NPN; kanamycin: slight increase only. As to the method: We used previously reported methods for the membrane perturbation assay. Briefly, a single colony of V. vulnificus was cultured in TSB medium for 480 minutes at 28°C, and the adjusted culture (1×10^6 CFU/ml) was aliquoted into different tubes with or without TP4 or TP3. After incubating the cells for 30 minutes, we added 40 μmol/L 1-N-phenylnaphthylamine (NPN) and continued to incubate the cells. Tubes containing PBS with NPN and bacterial cells with NPN served as controls. The NPN fluorescence intensity was detected using a fluorescence ELISA reader. All experiments were performed in triplicate, and the results are expressed as means with standard errors (SE).

Data set [6] deals with V. vulnificus. Briefly: Synergy of TP3 or TP4 with ampicillin or kanamycin. It is filed as cell-based, Vibrio vulnificus. To be noted: V. vulnificus 5×10^3 CFU/ml, 28°C, 720 minutes, 600-nm absorbance. The protocol:
We used the co-treatment method to test combinations of TP3 or TP4 with ampicillin or kanamycin to identify synergistic effects. […] The plates were incubated at 28°C for 720 minutes, and after the incubation period, the concentrations of the bacterial solutions were detected using a spectrometer (600-nm absorbance).

The test system of data set [7] is tilapia. Description: Toxicity of peptide alone, tilapia survival. Format: in vivo, tilapia (Oreochromis spp.). As to conditions: abdominal cavity, no infection, seven days (S2 Fig). The protocol: The antimicrobial activities of TP3 and TP4 peptides were analyzed in tilapia infected with lethal amounts of bacteria. Different amounts of V. vulnificus were injected into the abdominal cavities of the fish, and survival rates were recorded as cumulative percentages (S1 Fig). To determine whether TP3 and TP4 had any toxic effects on the tilapia, we injected different doses of TP3 and TP4 (0.1, 1, 10, 20, 30, 40, or 50 μg/fish) into the abdominal cavity and recorded the cumulative survival percentage of the fish (S2 Fig). We also co-treated tilapia with different doses (0.1, 1, 10, 20 μg/fish) of TP3 or TP4 combined with 2x10^4 CFU of V. vulnificus to evaluate tilapia survival following treatment. […] After 14, 21, or 28 days following the first co-treatment with TP3, the tilapia that survived in the 20 μg/fish TP3 experimental group were injected with a second dose of 2x10^4 CFU of V. vulnificus, and the survival rates were measured for another seven days. […] In the co-treatment experiments, at 14, 21, or 28 days after the first co-treatment with TP4, the surviving tilapia in the 20 μg/fish TP4 experimental group received a second injection of 2x10^4 CFU of V. vulnificus, and the survival rates were measured for another seven days.
Supplementary file pone.0169678.s002.pdf: S2 Fig Determination of tilapia survival rates seven days after injection with different concentrations of TP3 or TP4. (a) The survival rates of tilapia injected with TP3 at a dose of 0.1 μg/fish, 1 μg/fish, or 10 μg/fish. (b) The percentage of tilapia surviving after injection with TP4 at 0.1 μg/fish, 1 μg/fish, or 10 μg/fish. (c) The percentage of tilapia surviving after injection with TP3 at 20 μg/fish, 30 μg/fish, 40 μg/fish, or 50 μg/fish. (d) The percentage of tilapia surviving after injection with TP4 at 20 μg/fish, 30 μg/fish, 40 μg/fish, or 50 μg/fish. The control group (control) was injected with PBS alone. (PDF) Click here for additional data file.

The nature of data set [8]: in vivo. Set-up: species or system tilapia (Oreochromis hybrids, Tilapia spp.). To be noted: male, iv, 0.2 mg/kg. The protocol: The peptide half-life of TP3 and TP4 were investigated in male tilapia (Oreochromis hybrids, Tilapia spp., with a mean body length of 32.33±1.5 cm and a mean body weight of 1117±78.2 g) after intravenous administration of a single dose of 0.2 mg/kg of peptide. The TP3 and TP4 concentrations in serum samples were determined at 10, 30, 60, 120, 180, 240, 300, and 360 minutes for TP3 and at 10, 60, 120, 180, 240, 300, and 360 minutes after dosing for TP4. At each sample collection time point, we anesthetized three fish and collected their blood. The blood was centrifuged to obtain fish serum, which was assessed by liquid chromatography-mass spectrometry/mass spectrometry (LC-MS/MS) at Mission Biotech (Taipei, Taiwan).

The mark [9] stands for this setting: agent dissolved in pH = 4 solution.
Where [10] appears, read: agent dissolved in pH = 6 solution.
The mark [11] stands for this setting: agent dissolved in pH = 8 solution.
Where [12] appears, read: agent dissolved in pH = 10 solution.
Setting [13] is: agent dissolved in pH = 12 solution.
Setting [14] is: agent incubated 60 minutes at 40°C.
Where [15] appears, read: agent incubated 60 minutes at 60°C.
The mark [16] stands for this setting: agent incubated 60 minutes at 80°C.
Setting [17] is: agent incubated 60 minutes at 100°C.

For `NC[C@H]1O[C@H](O[C@H]2[C@H](O)[C@@H](O[C@H]3O[C@H](CO)[C@@H](O)[C@H](N)[C@H]3O)[C@H](N)C[C@@H]2N)[C@H](O)[C@@H](O)[C@@H]1O` [kanamycin, reference compound], the MIC worked out at 31.2 µg/mL (≈ 64.4 µM) in data set [1]; 31.2 µg/mL (≈ 64.4 µM) in data set [3] (setting [9]); 31.2 µg/mL (≈ 64.4 µM) in data set [3] (setting [10]); 31.2 µg/mL (≈ 64.4 µM) in data set [3] (setting [11]); 31.2 µg/mL (≈ 64.4 µM) in data set [3] (setting [12]); 250 µg/mL (≈ 516 µM) in data set [3] (setting [13]). The MIC was 31.2 µg/mL (≈ 64.4 µM) in data set [4] (RT); 31.2 µg/mL (≈ 64.4 µM) in data set [4] (setting [14]); 31.2 µg/mL (≈ 64.4 µM) in data set [4] (setting [15]); 31.2 µg/mL (≈ 64.4 µM) in data set [4] (setting [16]); 62.5 µg/mL (≈ 129 µM) in data set [4] (setting [17]). Besides, the MBC in data set [2], in data set [3] (Control of the pH series (pH 7)), in data set [3] (setting [9]), in data set [3] (setting [10]), in data set [3] (setting [11]) and in data set [3] (setting [12]) was 31.2 µg/mL (≈ 64.4 µM) throughout. Besides, the MBC is 250 µg/mL (≈ 516 µM) in data set [3] (setting [13]); 31.2 µg/mL (≈ 64.4 µM) in data set [4] (RT); 31.2 µg/mL (≈ 64.4 µM) in data set [4] (setting [14]); 31.2 µg/mL (≈ 64.4 µM) in data set [4] (setting [15]); 31.2 µg/mL (≈ 64.4 µM) in data set [4] (setting [16]); 62.5 µg/mL (≈ 129 µM) in data set [4] (setting [17]). Also, the “concentration that increased NPN fluorescence” value in data set [5] came to 100 µg/mL. The “change of the MIC of the antibiotic in combination with TP3 or TP4” value in data set [6] is given as “halved”.
For the compound `CC1(C)S[C@@H]2[C@H](NC(=O)[C@H](N)c3ccccc3)C(=O)N2[C@H]1C(=O)O` [ampicillin, reference compound], the MIC in data set [1] was 3.9 µg/mL (≈ 11.2 µM); in data set [1] (Vibrio vulnificus, read-out: MIC), 3.91 µg/mL (≈ 11.2 µM); in data set [3] (Vibrio vulnificus, agent dissolved in pH = 4 solution, read-out: MIC), 3.9 µg/mL (≈ 11.2 µM); in data set [3] (Vibrio vulnificus, agent dissolved in pH = 6 solution, read-out: MIC) it was 3.9 µg/mL (≈ 11.2 µM); in data set [3] (Vibrio vulnificus, agent dissolved in pH = 8 solution, read-out: MIC), 3.9 µg/mL (≈ 11.2 µM); in data set [3] (Vibrio vulnificus, agent dissolved in pH = 10 solution, read-out: MIC), 3.9 µg/mL (≈ 11.2 µM). Moreover, the MIC is 15.6 µg/mL (≈ 44.6 µM) in data set [3] (Vibrio vulnificus, agent dissolved in pH = 12 solution, read-out: MIC); 3.9 µg/mL (≈ 11.2 µM) in data set [3] (Vibrio vulnificus, pH 7, Control of the pH series (pH 7), read-out: MIC); 3.9 µg/mL (≈ 11.2 µM) in data set [4] (Vibrio vulnificus, 1 h, agent incubated 60 minutes at 40°C, read-out: MIC); 3.9 µg/mL (≈ 11.2 µM) in data set [4] (Vibrio vulnificus, RT, read-out: MIC); 3.9 µg/mL (≈ 11.2 µM) in data set [4] (setting [15]); 3.9 µg/mL (≈ 11.2 µM) in data set [4] (setting [16]). Also, the MIC in data set [4] (setting [17]) stood at 3.9 µg/mL (≈ 11.2 µM). Also, the MBC in data set [2] worked out at 3.9 µg/mL (≈ 11.2 µM); in data set [2] (Vibrio vulnificus, read-out: MBC), 3.91 µg/mL (≈ 11.2 µM); in data set [3] (Vibrio vulnificus, agent dissolved in pH = 4 solution, read-out: MBC) it was 3.9 µg/mL (≈ 11.2 µM); in data set [3] (Vibrio vulnificus, agent dissolved in pH = 6 solution, read-out: MBC) it was 3.9 µg/mL (≈ 11.2 µM); in data set [3] (Vibrio vulnificus, agent dissolved in pH = 8 solution, read-out: MBC), 3.9 µg/mL (≈ 11.2 µM); in data set [3] (Vibrio vulnificus, agent dissolved in pH = 10 solution, read-out: MBC), 3.9 µg/mL (≈ 11.2 µM). Besides, the MBC in data set [3] (Vibrio vulnificus, agent dissolved in pH = 12 solution, read-out: MBC) came to 15.6 µg/mL (≈ 44.6 µM); in data set [3] (Vibrio vulnificus, pH 7, Control of the pH series (pH 7), read-out: MBC), 3.9 µg/mL (≈ 11.2 µM); in data set [4] (Vibrio vulnificus, 1 h, agent incubated 60 minutes at 40°C, read-out: MBC) it was 3.9 µg/mL (≈ 11.2 µM); in data set [4] (Vibrio vulnificus, RT, read-out: MBC), 3.9 µg/mL (≈ 11.2 µM); in data set [4] (setting [15]), 3.9 µg/mL (≈ 11.2 µM); in data set [4] (setting [16]) it was 3.9 µg/mL (≈ 11.2 µM). The compound further registered an MBC in data set [4] (setting [17]) of 3.9 µg/mL (≈ 11.2 µM). Besides, the “thermostability by MIC and MBC values” in data set [4] (from 40°C to 100°C, in words) was “very stable”. Further, the “change of the MIC of the antibiotic in combination with TP3 or TP4” value in data set [6] is “halved”.
In general, half-life refers to the time in which the quantity being followed falls by half. A high value points to slow loss. Turning to `CC[C@H](C)[C@H](NC(=O)[C@H](C)NC(=O)[C@H](CCCCN)NC(=O)CNC(=O)[C@H](C)NC(=O)[C@H](CO)NC(=O)[C@H](Cc1ccccc1)NC(=O)[C@H](CC(C)C)NC(=O)CNC(=O)CNC(=O)[C@@H](NC(=O)[C@@H](NC(=O)[C@H](Cc1cnc[nH]1)NC(=O)[C@H](Cc1cnc[nH]1)NC(=O)[C@@H](NC(=O)[C@@H](N)Cc1ccccc1)[C@@H](C)CC)[C@@H](C)CC)[C@@H](C)CC)C(=O)N[C@@H](Cc1cnc[nH]1)C(=O)N[C@@H](CCCNC(=N)N)C(=O)N[C@@H](CC(C)C)C(=O)N[C@H](C(=O)N[C@@H](CCCNC(=N)N)C(=O)N[C@@H](CCCNC(=N)N)C(=O)N[C@@H](CCCNC(=N)N)C(=O)N[C@@H](CCCNC(=N)N)C(=O)N[C@@H](CCCNC(=N)N)C(=O)O)[C@@H](C)CC` [TP4, tilapia piscidin 4] (H-FIHHIIGGLFSAGKAIHRLIRRRRR-OH), the “percent survival after injection of peptide only” value was 70.0% in data set [7] (20 μg/fish), 56.7% in data set [7] (30 μg/fish), 63.3% in data set [7] (40 μg/fish) and 30.0% in data set [7] (50 μg/fish). This compound also yielded a half-life in data set [8] of 1 h.

For the origin of these results see paper PMC5234776, “Study of the Antimicrobial Activity of Tilapia Piscidin 3 (TP3) and TP4 and Their Effects on Immune Functions in Hybrid Tilapia (Oreochromis spp.)” (PLoS ONE, 2017).
